Counter-ions that a name gives are not always drawn.
Molecular target: S. aureus GyrB ATPase (Staphylococcus aureus, UniProt P0A0K8)
Assay: biochemical
Settings: compound at 1 μM; one value per test if tested more than once; 1 µM
Outline: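 IC50 values derive from 10-point titrations of compound (in DMSO). Phosphate formed from 250 μM ATP was quantified by acidic molybdate/malachite green after quenching.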

S. aureus GyrB ATPase, sequence (P0A0K8 whole entry): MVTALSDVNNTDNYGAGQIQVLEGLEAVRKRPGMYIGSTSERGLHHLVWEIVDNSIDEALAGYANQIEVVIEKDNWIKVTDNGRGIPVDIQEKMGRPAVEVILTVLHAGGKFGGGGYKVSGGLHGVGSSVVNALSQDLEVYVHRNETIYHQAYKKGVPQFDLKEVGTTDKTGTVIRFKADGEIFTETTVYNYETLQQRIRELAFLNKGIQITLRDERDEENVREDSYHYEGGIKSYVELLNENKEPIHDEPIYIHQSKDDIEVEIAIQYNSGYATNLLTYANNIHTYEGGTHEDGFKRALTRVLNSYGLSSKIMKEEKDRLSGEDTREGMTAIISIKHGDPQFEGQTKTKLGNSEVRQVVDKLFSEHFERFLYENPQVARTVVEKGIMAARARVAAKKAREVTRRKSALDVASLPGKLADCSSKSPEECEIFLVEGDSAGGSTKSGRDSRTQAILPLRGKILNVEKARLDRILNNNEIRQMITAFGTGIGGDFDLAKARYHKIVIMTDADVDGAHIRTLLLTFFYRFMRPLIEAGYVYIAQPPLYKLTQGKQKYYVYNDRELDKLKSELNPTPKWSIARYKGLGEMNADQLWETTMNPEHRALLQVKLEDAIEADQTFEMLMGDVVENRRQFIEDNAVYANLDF
S. aureus GyrB ATPase, sequence (P0AES4 whole entry, further chain): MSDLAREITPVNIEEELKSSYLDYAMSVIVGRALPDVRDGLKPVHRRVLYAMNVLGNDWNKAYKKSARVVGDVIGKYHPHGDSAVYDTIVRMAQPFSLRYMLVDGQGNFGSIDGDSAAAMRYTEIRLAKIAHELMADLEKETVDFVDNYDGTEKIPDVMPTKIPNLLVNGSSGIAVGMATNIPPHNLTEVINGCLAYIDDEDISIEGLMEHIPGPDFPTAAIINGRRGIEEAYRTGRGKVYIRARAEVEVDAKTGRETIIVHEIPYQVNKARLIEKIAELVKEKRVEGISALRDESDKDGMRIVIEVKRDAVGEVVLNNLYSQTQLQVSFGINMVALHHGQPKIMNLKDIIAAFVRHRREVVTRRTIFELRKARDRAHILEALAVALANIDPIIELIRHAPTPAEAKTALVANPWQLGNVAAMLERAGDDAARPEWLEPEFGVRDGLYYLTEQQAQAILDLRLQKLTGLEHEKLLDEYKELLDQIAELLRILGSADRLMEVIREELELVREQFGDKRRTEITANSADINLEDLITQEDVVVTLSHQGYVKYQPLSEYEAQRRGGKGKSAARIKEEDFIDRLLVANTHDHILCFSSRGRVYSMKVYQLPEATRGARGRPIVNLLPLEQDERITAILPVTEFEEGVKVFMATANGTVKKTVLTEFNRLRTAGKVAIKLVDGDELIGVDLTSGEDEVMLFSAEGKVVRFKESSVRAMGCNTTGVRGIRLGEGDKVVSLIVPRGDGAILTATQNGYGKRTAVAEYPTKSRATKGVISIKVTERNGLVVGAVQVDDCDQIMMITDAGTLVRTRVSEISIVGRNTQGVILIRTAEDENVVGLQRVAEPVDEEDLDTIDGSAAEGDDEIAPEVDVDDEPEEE

**Q.** `CCNC(=O)Nc1cc(-c2nc(C(F)(F)F)cs2)c(-c2ccc3c(c2)c(=O)c(C(=O)O)cn3[C@H](CO)CC(C)C)cn1` [Example 95, (S)-6-(6-(3-ethylureido)-4-(4-(trifluoromethyl)thiazol-2-yl)pyridin-3-yl)-1-(1-hydroxy-4-methylpentan-2-yl)-4-oxo-1,4-dihydroquinoline-3-carboxylic acid] was tested. Which “% Inhibition of S. aureus GyrB ATPase” value did it give?
**A.** 109%

Same assay, conditions: compound at 1 μM; one value per test if tested more than once; read-out: % Inhibition of S. aureus GyrB ATPase

**Q.** Which inhibition at 1 µM does the source give for `CCNC(=O)Nc1cc(-c2nc(C(F)(F)F)cs2)c(-c2ccc3c(=O)c(C(=O)O)cn(C)c3c2)cn1` [Example 22, 7-(6-(3-Ethylureido)-4(4-(trifluoromethyl)thiazol-2-yl)pyridin-3-yl)-1-methyl-4-oxo-1,4-dihydroquinoline-3-carboxylic acid] here?
**A.** 99%

**Q.** `CCNC(=O)Nc1cc(-c2nc(C(F)(F)F)cs2)c(-c2ccc3c(=O)c(C(=O)O)c[nH]c3c2)cn1` [Example 23, 7-(6-(3-Ethylureido)-4-(4-(trifluoromethyl)thiazol-2-yl)pyridin-3-yl)-4-oxo-1,4-dihydroquinoline-3-carboxylic acid] was tested. Which inhibition at 1 µM did it give?
**A.** 101%

**Q.** For `CCNC(=O)Nc1cc(-c2nc(C(F)(F)F)cs2)c(-c2ccc3c(c2)c(=O)c(C(=O)N2CCN(C(C)=O)CC2)cn3C(COC)COC)cn1` [Example 144, 1-(5-{3-[(4-acetylpiperazin-1-yl)carbonyl]-1-(1,3-dimethoxypropan-2-yl)-4-oxo-1,4-dihydroquinolin-6-yl}-4-[4-(trifluoromethyl)-1,3-thiazol-2-yl]pyridin-2-yl)-3-ethylurea], which inhibition at 1 µM is on record?
**A.** 94%

**Q.** With `CCNC(=O)Nc1cc(-c2nc(C(F)(F)F)cs2)c(-c2ccc3c(c2)c(=O)c(C(=O)NCCO)cn3C(COC)COC)cn1` [Example 148, 1-(1,3-dimethoxypropan-2-yl)-6-(6-(3-ethylureido)-4-(4-(trifluoromethyl)thiazol-2-yl)pyridin-3-yl)-N-(2-hydroxyethyl)-4-oxo-1,4-dihydroquinoline-3-carboxamide] as the compound, how does the inhibition at 1 µM read?
**A.** 93%

**Q.** How did the inhibition at 1 µM turn out when `CCNC(=O)Nc1cc(-c2nc(C(F)(F)F)cs2)c(-c2ccc3c(c2)c(=O)c(C(=O)O)cn3CC2CCN(C)CC2)cn1` [Example 94, 6-(6-(3-ethylureido)-4-(4-(trifluoromethyl)thiazol-2-yl)pyridin-3-yl)-1-((1-methylpiperidin-4-yl)methyl)-4-oxo-1,4-dihydroquinoline-3-carboxylic acid] was run?
**A.** 95%

**Q.** Which inhibition at 1 µM does the source give for `CCNC(=O)Nc1cc(-c2nc(C(F)(F)F)cs2)c(-c2ccc3c(c2)c(=O)c(C(=O)NC)cn3C(COC)COC)cn1` [Example 129, 1-(1,3-dimethoxypropan-2-yl)-6-(6-(3-ethylureido)-4-(4-(trifluoromethyl)thiazol-2-yl)pyridin-3-yl)-N-methyl-4-oxo-1,4-dihydroquinoline-3-carboxamide] here?
**A.** 93%

**Q.** Which inhibition at 1 µM does the source give for `CCCn1cc(C(=O)O)c(=O)c2ccc(-c3cnc(NC(=O)NCC)cc3-c3nc(C(F)(F)F)cs3)cc21` [Example 27, 7-{6-[(ethylcarbamoyl)amino]-4-[4-(trifluoromethyl)-1,3-thiazol-2-yl]pyridin-3-yl}-4-oxo-1-propyl-1,4-dihydroquinoline-3-carboxylic acid] here?
**A.** 99%

**Q.** For `CCCn1cc(C(=O)NCCO)c(=O)c2ccc(-c3cnc(NC(=O)NCC)cc3-c3nc(C(F)(F)F)cs3)cc21` [Example 348, 7-{6-[(ethylcarbamoyl)amino]-4-[4-(trifluoromethyl)-1,3-thiazol-2-yl]pyridin-3-yl}-N-(2-hydroxyethyl)-4-oxo-1-propyl-1,4-dihydroquinoline-3-carboxamide], which inhibition at 1 µM is on record?
**A.** 98%

**Q.** How did the inhibition at 1 µM turn out when `CCNC(=O)Nc1cc(-c2nc(C(F)(F)F)cs2)c(-c2ccc3c(=O)c(C(=O)NCCN4CCOCC4)cn(CC)c3c2)cn1` [Example 333, 1-Ethyl-7-{6-[(ethylcarbamoyl)amino]-4-[4-(trifluoromethyl)-1,3-thiazol-2-yl]pyridin-3-yl}-N-[2-(morpholin-4-yl)ethyl]-4-oxo-1,4-dihydroquinoline-3-carboxamide] was run?
**A.** 106%

**Q.** For `CCNC(=O)Nc1cc(-c2nc(C(F)(F)F)cs2)c(-c2ccc3c(c2)c(=O)c(C(=O)O)cn3[C@H]2CCCN(CCO)C2)cn1` [Example 291, (S)-6-(6-(3-ethylureido)-4-(4-(trifluoromethyl)thiazol-2-yl)pyridin-3-yl)-1-(1-(2-hydroxyethyl)piperidin-3-yl)-4-oxo-1,4-dihydroquinoline-3-carboxylic acid], which inhibition at 1 µM is on record?
**A.** 107%

**Q.** `CCCNC(=O)Nc1cc(-c2nc(C(F)(F)F)cs2)c(-c2ccc3c(c2)c(=O)c(C(=O)N2CCN(S(C)(=O)=O)CC2)cn3C2CN(C)C2)cn1` [Example 170, 1-(5-(1-(1-methylazetidin-3-yl)-3-(4-(methylsulfonyl)piperazine-1-carbonyl)-4-oxo-1,4-dihydroquinolin-6-yl)-4-(4-(trifluoromethyl)thiazol-2-yl)pyridin-2-yl)-3-propylurea] was tested. Which inhibition at 1 µM did it give?
**A.** 102%

**Q.** For `CCNC(=O)Nc1cc(-c2nc(C(F)(F)F)cs2)c(-c2ccc3c(c2)c(=O)c(C(=O)O)cn3[C@H](CO)C2CCCCC2)cn1` [Example 78, (S)-1-(1-cyclohexyl-2-hydroxyethyl)-6-(6-(3-ethylureido)-4-(4-(trifluoromethyl)thiazol-2-yl)pyridin-3-yl)-4-oxo-1,4-dihydroquinoline-3-carboxylic acid], which inhibition at 1 µM is on record?
**A.** 102%

**Q.** `CCNC(=O)Nc1cc(-c2nc(C(F)(F)F)cs2)c(-c2ccc3c(=O)c(C(=O)NC)cn(CC4CC4)c3c2)cn1` [Example 374, 1-(Cyclopropylmethyl)-7-{6-[(ethylcarbamoyl)amino]-4-[4-(trifluoromethyl)-1,3-thiazol-2-yl]pyridin-3-yl}-N-methyl-4-oxo-1,4-dihydroquinoline-3-carboxamide] was tested. Which inhibition at 1 µM did it give?
**A.** 86%

**Q.** How did the inhibition at 1 µM turn out when `CCNC(=O)Nc1cc(-c2nc(C(F)(F)F)cs2)c(-c2ccc3c(c2)c(=O)c(C(=O)O)cn3Cc2ccncc2)cn1` [Example 124, 6-(6-(3-ethylureido)-4-(4-(trifluoromethyl)thiazol-2-yl)pyridin-3-yl)-4-oxo-1-(pyridin-4-ylmethyl)-1,4-dihydroquinoline-3-carboxylic acid] was run?
**A.** 87%

**Q.** `CCNC(=O)Nc1cc(-c2nc(C(F)(F)F)cs2)c(-c2ccc3c(=O)c(C(=O)NCCO)cn(CCC(C)C)c3c2)cn1` [Example 336, 7-{6-[(ethylcarbamoyl)amino]-4-[4-(trifluoromethyl)-1,3-thiazol-2-yl]pyridin-3-yl}-N-(2-hydroxyethyl)-1-(3-methylbutyl)-4-oxo-1,4-dihydroquinoline-3-carboxamide] was tested. Which inhibition at 1 µM did it give?
**A.** 109%

**Q.** With `CCNC(=O)Nc1cc(-c2nc(C(F)(F)F)cs2)c(-c2ccc3c(=O)c(C(=O)NCCCO)cn(CC4CC4)c3c2)cn1` [Example 376, 1-(Cyclopropylmethyl)-7-{6-[(ethylcarbamoyl)amino]-4-[4-(trifluoromethyl)-1,3-thiazol-2-yl]pyridin-3-yl}-N-(3-hydroxypropyl)-4-oxo-1,4-dihydroquinoline-3-carboxamide] as the compound, how does the inhibition at 1 µM read?
**A.** 108%

**Q.** How did the inhibition at 1 µM turn out when `CCNC(=O)Nc1cc(-c2nc(C(F)(F)F)cs2)c(-c2ccc3c(c2)c(=O)c(C(=O)O)cn3[C@H]2CCCN(CC(C)(C)CN3CCOCC3)C2)cn1` [Example 289, (S)-1-(1-(2,2-dimethyl-3-morpholinopropyl)piperidin-3-yl)-6-(6-(3-ethylureido)-4-(4-(trifluoromethyl)thiazol-2-yl)pyridin-3-yl)-4-oxo-1,4-dihydroquinoline-3-carboxylic acid] was run?
**A.** 103%

**Q.** For `CCCNC(=O)Nc1cc(-c2nc(C(F)(F)F)cs2)c(-c2ccc3c(c2)c(=O)c(C(=O)O)cn3C2CCOCC2)cn1` [Example 192, 4-oxo-6-(6-(3-propylureido)-4-(4-(trifluoromethyl)thiazol-2-yl)pyridin-3-yl)-1-(tetrahydro-2H-pyran-4-yl)-1,4-dihydroquinoline-3-carboxylic acid], which inhibition at 1 µM is on record?
**A.** 92%

**Q.** With `CCNC(=O)Nc1cc(-c2nc(C(F)(F)F)cs2)c(-c2ccc3c(c2)c(=O)c(C(=O)O)cn3C(CO)CO)cn1` [Example 75, 1-(1,3-dihydroxypropan-2-yl)-6-(6-(3-ethylureido)-4-(4-(trifluoromethyl)thiazol-2-yl)pyridin-3-yl)-4-oxo-1,4-dihydroquinoline-3-carboxylic acid] as the compound, how does the inhibition at 1 µM read?
**A.** 102%

**Q.** Which inhibition at 1 µM does the source give for `CCNC(=O)Nc1cc(-c2nc(C(F)(F)F)cs2)c(-c2ccc3c(c2)c(=O)c(C(=O)O)cn3[C@H]2CCCN(CCN(CC)CC)C2)cn1` [Example 287, (S)-ethyl 1-(1-(2-(diethylamino)ethyl)piperidin-3-yl)-6-(6-(3-ethylureido)-4-(4-(trifluoromethyl)thiazol-2-yl)pyridin-3-yl)-4-oxo-1,4-dihydroquinoline-3-carboxylic acid trifluoroacetate] here?
**A.** 100%

**Q.** Which inhibition at 1 µM does the source give for `CCNC(=O)Nc1cc(-c2nc(C(F)(F)F)cs2)c(-c2ccc3c(c2)c(=O)c(C(=O)O)cn3[C@@H]2CCCN(CCN(CC)CC)C2)cn1` [Example 288, (S)-ethyl 1-(1-(2-(diethylamino)ethyl)piperidin-3-yl)-6-(6-(3-ethylureido)-4-(4-(trifluoromethyl)thiazol-2-yl)pyridin-3-yl)-4-oxo-1,4-dihydroquinoline-3-carboxylic acid trifluoroacetate] here?
**A.** 99%

**Q.** `CC(C)NC(=O)Nc1cc(-c2nc(C(F)(F)F)cs2)c(-c2ccc3c(c2)c(=O)c(C(=O)NCCN(C)C)cn3CCN2CCN(C)CC2)cn1` [Example 227, N-(2-(dimethylamino)ethyl)-6-(6-(3-isopropylureido)-4-(4-(trifluoromethyl)thiazol-2-yl)pyridin-3-yl)-1-(2-(4-methylpiperazin-1-yl)ethyl)-4-oxo-1,4-dihydroquinoline-3-carboxamide] was tested. Which inhibition at 1 µM did it give?
**A.** 91%

**Q.** How did the inhibition at 1 µM turn out when `CCNC(=O)Nc1cc(-c2nc(C(F)(F)F)cs2)c(-c2ccc3c(=O)c(C(=O)O)cn(CCC(C)C)c3c2)cn1` [Example 25, 7-{6-[(ethylcarbamoyl)amino]-4-[4-(trifluoromethyl)-1,3-thiazol-2-yl]pyridin-3-yl}-1-(3-methylbutyl)-4-oxo-1,4-dihydroquinoline-3-carboxylic acid] was run?
**A.** 99%
